In PubChem BioAssay AID434987 (Southern Research Specialized Biocontainment Screening …, 2010):
The source made the active and inactive calls. How the calls were made is not given here.

Tested on: M. tuberculosis H37Rv growth inhibition with meropenem
Assay: dose response, H37Rv, with and without meropenem (AID 434987);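 further: growth over 7 days at 37 °C before Alamar Blue read on day 9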
[1] = M. tuberculosis H37Rv growth inhibition, measured here: IC50 without meropenem
[2] = M. tuberculosis H37Rv growth inhibition, measured here: IC90 without meropenem
[3] = measured here: IC90 with meropenem

Structure (SMILES)	IC50	IC50 [1] [µM]	IC90 [2] [µM]	IC90 [3] [µM]
COc1ccc2nc(SCC(=O)N3CCCCCC3)c(C#N)cc2c1	> 50 µM (inactive)	> 100	> 100	> 50
O=C(Nc1cccc2ccccc12)N1CCCN(c2c(Cl)cncc2Cl)CC1	> 100 µM (inactive)	> 100	> 100	> 100
CC(C)=CCC/C(C)=C/C=N/NC(=O)c1ccc([N+](=O)[O-])cc1	1.02 µM	49	> 100	> 100
CN(C)S(=O)(=O)n1cc(/C=C(\NC(=O)c2ccccc2)C(=O)NCCN2CCOCC2)c2ccccc21	> 100 µM (inactive)	> 100	> 100	> 100
O=C(O)CCCN1C(=O)/C(=C\c2ccc(-c3nc4ccccc4s3)o2)SC1=S	24.3 µM	60.4	> 100	> 100
COc1ccc(OC)c(-c2cc(C(=O)Nc3c(C)nn(Cc4ccccc4C)c3C)no2)c1	> 100 µM (inactive)	> 100	> 100	> 100
Nc1c(C(=O)c2cccs2)sc2nsc(SCCN3CCCCC3)c12	> 100 µM (inactive)	> 100	> 100	> 100
NC(=S)N/N=C/c1ccc(/C=N/NC(N)=S)cc1	2.5 µM	> 100	> 100	> 100
CCOC(=O)c1sc(NC(=O)CN2CCCC2)c(C(=O)OCC)c1C	> 100 µM (inactive)	> 100	> 100	> 100
O=S1(=O)CCO[C@H]2Cc3ccccc3[C@H]2N1Cc1ccccc1	> 100 µM (inactive)	> 100	> 100	> 100
COC(=O)c1cc(C)[nH]c2c(C)cc3nc4ccccc4c3c12	> 100 µM (inactive)	> 100	> 100	> 100
CCn1nnnc1SCC(=O)c1ccc(C)cc1C	> 100 µM (inactive)	> 100	> 100	> 100
CCOc1ccc(N=c2cc(-c3ccc(OC)cc3)oc3ccccc23)cc1	45.2 µM (inactive)	40.1	44.4	50.3
Cc1ccc(-c2nc3[nH]c(=O)cc(NC(=O)C(C)C)n3n2)cc1	7.36 µM	> 100	> 100	> 12.5
CC/C(=N\NC(=S)NC(C)C)c1ccc(OC)c(OC)c1	12.9 µM (inactive)	20.2	24.7	15.5
COc1ccc(NC(=O)CCc2ccccc2)cc1NC(=O)c1ccco1	> 100 µM (inactive)	> 100	> 100	> 100
CC(=O)Nc1ccc(C(=O)N(C2=NC(C)CS2)c2ccc(Cl)cc2)cc1 (configuration not stated)	29.8 µM (inactive)	44.1	> 100	> 100
CCN(CC)c1ccc(C=N/C(C#N)=C(\N)C#N)cc1	16.9 µM	> 100	> 100	> 100
CN1CCN(c2ccc(NC(=O)c3ccc(-c4cccc([N+](=O)[O-])c4)o3)cc2)CC1	5.87 µM (inactive)	6.97	18.1	6.71
O=C(NC1c2ccccc2-c2ccccc21)c1ccco1	> 100 µM (inactive)	> 100	> 100	> 100
O=C(CCC(=O)Nc1ccccc1)NNC(=O)c1ccco1	> 100 µM (inactive)	> 100	> 100	> 100
C/C(=N\OCC(=O)Nc1nc2ccccc2s1)c1ccccc1	13.1 µM	47.6	54.1	35.6

Structure (SMILES)	IC50	IC50 [1] [µM]	IC90 [2] [µM]	IC90 [3] [µM]
O=C(COC(=O)c1ccc([N+](=O)[O-])s1)NCc1ccccc1	18.3 µM (inactive)	34.8	> 100	39.4
COc1ccc([N+](=O)[O-])cc1NS(=O)(=O)c1ccc(C(=O)N2CCCC2)cc1	> 100 µM (inactive)	> 100	> 100	> 100
O=C(Nc1ccc2nc3n(c(=O)c2c1)CCCC3)c1cc([N+](=O)[O-])ccc1F	83.8 µM (inactive)	83.1	90	91
C/C(=N\NC(=S)Nc1ccccc1C)c1ccc(O)cc1	0.552 µM	21.6	24.7	7.97
O=C(O)C1CC(=O)N(c2ccc(OCc3ccccc3Cl)cc2)C1 (configuration not stated)	14.2 µM	41.6	> 100	> 100
Cc1nn(C)c(C)c1NC(=O)CCCSc1nc(-c2ccco2)cc(C(F)(F)F)n1	> 100 µM (inactive)	> 100	> 100	> 100
O=c1c2ccccc2c(-c2ccccc2)nn1-c1ccccc1	19.7 µM	> 100	> 100	> 100
CCOc1cc(CNC(C)C)c(Cl)cc1OCC(=O)NCCc1ccccc1	> 100 µM (inactive)	> 100	> 100	> 100
COC(=O)c1sc(-c2ccc(Cl)cc2)cc1NC(=O)COCC(=O)O	15.2 µM	39.5	> 100	44.8
CC1=NN(c2ccccc2)C(=O)C1C=Nc1ccccc1O (configuration not stated)	> 100 µM (inactive)	> 100	> 100	> 100
CCCCC12CN3CC(C)(CN(C1)C3c1ccc([N+](=O)[O-])o1)C2=O (configuration not stated)	4.12 µM	27	98.7	23.5
Nc1c2c(nc3sc4c(c13)CCCC4)-c1ccccc1CC2	6.11 µM	> 100	> 100	> 100
COc1ccc(/C=C2\N=C(SC)N(c3ccccc3OC)C2=O)cc1	18.1 µM	> 100	> 100	> 25
CCc1nc2scc(-c3cccs3)c2c(=O)o1	> 100 µM (inactive)	> 100	> 100	> 100
COc1ccccc1N1CCN(CC(=O)Nc2cc(F)ccc2C)CC1	47 µM (inactive)	58.6	> 100	91
Cc1ccc(C(=O)NCC2(c3ccccc3)CCCC2)cc1	75.3 µM (inactive)	> 100	> 100	> 100
Cn1nnnc1SCC(=O)Nc1ccccc1[N+](=O)[O-]	28.8 µM	71.9	> 100	> 100
CCOC(=O)c1cc(-c2ccc(C)cc2)n(CCC(=O)N2CCN(c3ccccn3)CC2)c1C	69.5 µM (inactive)	89.4	> 100	> 100
O=C(/C=C/c1ccccc1[N+](=O)[O-])c1ccc(F)cc1	19.8 µM	94.1	> 100	> 100
COc1ccc2ccccc2c1/C=N/NC(=O)c1cccc(C)c1	64.9 µM (inactive)	> 100	> 100	> 100
Cn1c(O)c(C2=c3ccccc3=NC2=O)[nH]c1=S	16.6 µM	> 100	> 100	> 100
